In patent US4472408A, “Substituted trifluoromethylphenyltetrahydropyridines having an anorectic activity” (Sanofi, priority 1981, dated 1984):
Counter-ions that a name gives are not always drawn. Like-named read-outs stand apart in the source and are kept apart here.

Key:
[1] = acute toxicity, LD50 in the rat by oral or intraperitoneal route; conditions: in vivo
Source text: the acute toxicity, expressed as LD50 in the rat by the oral or intraperitoneal route (A);

[2] = anorectic activity, food intake in the rat; type: in vivo; conditions: in vivo, read-out: A/B, ratio acute toxicity to anorectic activity (therapeutic index)
Method: (§1) The anorectic activity was assessed by the method of the food intake in the rat. Female rats weighing 200 g are used, which were trained for 10 days to eat during a period of 4 hours and selected on the eighth day. At the end of the tenth day, the randomised animals were divided into a "control group" treated by the vehicle alone, and into several "treated groups". Treatment was effected by the intraperitoneal or oral route 30 minutes or 1 hour before presentation of the food and the quantity of food therefor taken during the first hour was then measured.
(§2) the anorectic activity, expressed as oral or intraperitoneal dose inhibiting by 50% the food intake (ID50, B);
(§3) the ratio between the acute toxicity and the anorectic activity which expresses the therapeutic index related to the acute toxocity (A/B).

food intake in the rat [3] = assay: anorectic activity, food intake in the rat; type: in vivo; conditions: 1 h, food taken during first hour, read-out: ID50 (B), dose inhibiting by 50% the food intake
Method: as §1, §2, §3

cerebral serotonin [4] = assay: cerebral rates of serotonin after i.p. or oral administration (Curzon and Green); type: in vivo
Source text: Table II hereinbelow summarises the cerebral rates of serotonin, in percentage with respect to the controls, after intraperitoneal or oral administration of four representative compounds of the present invention. The determination of the cerebral rates, according to Curzon and Green (Brit. J. Pharmacol. 39, 653, 1970) was effected one hour and/or two hours after administration. Fenfluramine was used as reference product.

[5] = target: post-synaptic serotonin receptors; assay: 3H-serotonin binding to rat cortex membranes (Peroutka and Snyder)
Method: The affinity of the compounds of the present invention for the post-synaptic serotinin receptors was determined according to the method of Peroutka and Snyder (Molec. Pharmacol. 1979, 16, 687-699) which consists in incubating rat cortex membranes with a fixed concentration of ^3 H-serotonin in the presence of different concentrations of product. […] Fenfluramine was used as reference compound.

food intake in the rat [6] = conditions: background; cited from earlier work
cerebral serotonin [7] = conditions: at doses very close to the anorectic dose; Arch. Intern. Pharmacodyn. Ther. 1967; cited from earlier work
[8] = background; cited from earlier work
[9] = i.p., 7.5 mg/kg, 2 hrs (fenfluramine: significant P < 0.01)

SMILES | LD50 ([1]; ip) | LD50 ([1]; oral) | selectivity ratio ([2]; ip) | selectivity ratio ([2]; oral) | ED50 (food intake in the rat [3]; oral) | ED50 (food intake in the rat [3]; ip, i.p.) | cerebral rates of serotonin (cerebral serotonin [4]; [9]) | cerebral rates of serotonin (cerebral serotonin [4]; i.p., 15.0 mg/kg, 2 hrs) | further results
Cl.N#CCCN1CC=C(c2cccc(C(F)(F)F)c2)CC1 [Example 2, 4-(3-trifluoromethylphenyl)-1-(2-cyanoethyl)-1,2,3,6-tetrahydropyridine hydrochloride] | 206 mg/kg | 254 mg/kg | 17.1 | 26.7 | 9.5 mg/kg | 12 mg/kg | 128 % with respect to controls | 146 % with respect to controls | cerebral rates of serotonin (cerebral serotonin [4]; i.p., 15.0 mg/kg, 1 hr): 131.0 % with respect to controls; cerebral rates of serotonin (cerebral serotonin [4]; i.p., 30.0 mg/kg, 2 hrs): 146 % with respect to controls
Cl.N#CCCCN1CC=C(c2cccc(C(F)(F)F)c2)CC1 [Example 3, 4-(3-trifluoromethylphenyl)-1-(3-cyanopropyl)-1,2,3,6-tetrahydropyridine hydrochloride] | 258 mg/kg | 538 mg/kg | 23.3 | 46 | 11.7 mg/kg | 11.1 mg/kg | – | – | –
N#CCCCCN1CC=C(c2cccc(C(F)(F)F)c2)CC1 [Example 4, 4-(3-trifluoromethylphenyl-1-(4-cyanobutyl)-1,2,3,6-tetrahydropyridine hydrochloride] | – | 336 mg/kg | – | 32 | 10.5 mg/kg | – | – | – | –
CC(=O)CN1CC=C(c2cccc(C(F)(F)F)c2)CC1.Cl [Example 5, 4-(3-trifluoromethylphenyl)-1-acetonyl-1,2,3,6-tetrahydropyridine hydrochloride] | 165 mg/kg | – | 15.3 | – | – | 10.8 mg/kg | – | – | –
CC(=O)CCN1CC=C(c2cccc(C(F)(F)F)c2)CC1.Cl [Example 6, 4-(3-trifluoromethylphenyl)-1-(3-oxobutyl)-1,2,3,6-tetrahydropyridine hydrochloride] | 134 mg/kg | 299 mg/kg | 20.6 | 25.3 | 11.8 mg/kg | 6.5 mg/kg | 108 % with respect to controls | 116 % with respect to controls | cerebral rates of serotonin (cerebral serotonin [4]; i.p., 3.25 mg/kg, 2 hrs): 109 % with respect to controls
Cl.FC(F)(F)c1cccc(C2=CCN(CC3CC3)CC2)c1 [Example 7, 4-(3-trifluoromethylphenyl)-1-cyclopropylmethyl-1,2,3,6-tetrahydropyridine hydrochloride] | 135 mg/kg | – | 24.6 | – | – | 5.5 mg/kg | 123 % with respect to controls | 119 % with respect to controls | cerebral rates of serotonin (cerebral serotonin [4]; i.p., 3.25 mg/kg, 2 hrs): 111 % with respect to controls
Cl.FC(F)(F)c1cccc(C2=CCN(CCC3CCCCC3)CC2)c1 [Example 10, 4-(3-trifluoromethylphenyl)-1-(2-cyclohexylethyl)-1,2,3,6-tetrahydropyridine hydrochloride] | – | 488 mg/kg | – | 188 | 2.6 mg/kg | – | – | – | cerebral rates of serotonin (cerebral serotonin [4]; oral, 1.25 mg/kg, 2 hrs): 99 % with respect to controls; cerebral rates of serotonin (cerebral serotonin [4]; oral, 2.5 mg/kg, 2 hrs): 95 % with respect to controls; cerebral rates of serotonin (cerebral serotonin [4]; oral, 5 mg/kg, 2 hrs): 101 % with respect to controls
CCNC(C)Cc1cccc(C(F)(F)F)c1 (centres unmarked) [fenfluramine, reference compound] | – | – | 15.8 | 25.1 | 4 mg/kg | 5.4 mg/kg | 53.1 % with respect to controls | – | cerebral rates of serotonin (cerebral serotonin [4]; i.p., 5 mg/kg, 1 hr, significant P < 0.05): 82.9 % with respect to controls; cerebral rates of serotonin (cerebral serotonin [4]; i.p., 7.5 mg/kg, 1 hr, significant P < 0.05): 81.6 % with respect to controls; cerebral rates of serotonin (cerebral serotonin [4]; i.p., 10 mg/kg, 1 hr, significant P < 0.01): 79.0 % with respect to controls; effect on cerebral rates of serotonin (in words) (cerebral serotonin [4]; in vivo): induces a significant reduction of cerebral serotonin; IC50 [5]: > 10 µM; anorectic activity (in words) (food intake in the rat [6]): excellent anorectic activity; effect on cerebral rates of serotonin (in words) (cerebral serotonin [7]): induces a significant reduction in the cerebral rates of serotonin; sedative or stimulant action (in words) [8]: instead of being stimulant, has a certain sedative action
